Results as given in article PMC8047011, “Enantiomers of 2-methylglutamate and 2-methylglutamine selectively impact mouse brain metabolism and behavior” (Scientific Reports, 2021).
Read-outs that look alike come from different tables or passages of the source.

Tests used:
GABAB (B1/B2) [1] = molecular target: T1, GABAB (B1/B2) (Homo sapiens, UniProt Q9UBS5); assay: GABAB binding assay (B1/B2; nonsel); conditions: triplicate, rat, read-out: % of radioligand binding inhibition, GABAB nonsel
T1 construct: purchased SB Drug Discovery (CNS discovery panel, FLIPR); Eurofins Discovery (Cerep)
Method: (§1) mGluR1, mGluR2, mGluR5 and GABAB binding assays were performed by Eurofins Discovery. […]
(§2) mGluR5 and GABAB binding assays were performed using recombinant CHO-K1 cells and
(§3) [3H]CGP-54626 and [3H]quisqalic acid, respectively. All compounds were tested at a single
(§4) concentration of 100 uM in triplicate. […]

mGluR5 = molecular target: T2, mGluR5 (Homo sapiens, UniProt P41594); assay: mGluR5 radioligand binding assay; conditions: triplicate
T2 construct: purchased SB Drug Discovery (CNS discovery panel, FLIPR); Eurofins Discovery (Cerep)
Method: as §1, §2, §3, §4

GABAA α2β2γ2 = molecular target: T3, GABAA α2β2γ2 (Homo sapiens, UniProt P47869+P47870); assay: FLIPR functional receptor assay, GABAA α2β2γ2; type: cell-based; conditions: agonist mode; top test concentration 1 mM
T3 construct: host or cells: HEK 293
Method: (§5) Receptor functional & binding assays
(§6) Functional assays of all GABAA, NMDA (GluN2A–GluN2D) and AMPA (GluA2) receptor subunits were performed by SB Drug Discovery as a part of their CNS discovery panel using FLIPR technology. Briefly, receptor-expressing HEK 293 cell lines were incubated in a red membrane potential dye in HEPES:HBSS pH 7.4 buffer and the fluorescence (λex: 488, λex: 510–570) was monitored over time as the test compounds and/or reference compounds were added to the solution. In agonist assay, only test compounds were added. In positive allosteric modulator assay, cells were preincubated with test compounds and then low concentration (approximately EC20) of an appropriate agonist was added. In antagonist assay, cells were preincubated with test compounds and then high concentration (approximately EC80) of an appropriate agonist was added. For GABAA assays, GABA was used as the agonist, picrotoxin was used as the reference antagonist and allopregnanolone was used as the reference positive allosteric modulator (PAM). For NMDA assays, a mixture of glutamate, glycine and CaCl2 was used as the agonist, MK801 was the reference antagonist and pregnenolone sulfate or GNE 9278 were used as reference PAMs. […] All compounds were tested at 7 concentration points in triplicate and EC50/IC50 was determined where applicable. […]

GABAA α4β2γ2 = molecular target: T4, GABAA α4β2γ2 (Homo sapiens, UniProt P47870+P48169); assay: FLIPR functional receptor assay, GABAA α4β2γ2; type: cell-based; conditions: agonist mode; top test concentration 1 mM
T4 construct: host or cells: HEK 293
Method: (§7) intensity and lower number of tone and shock (2x) pairings to create a greater opportunity to observe pharmacologic activity.
as §5
as §6, with “(PAM).” for “(PAM). For NMDA assays, a mixture of glutamate, glycine and CaCl2 was used as the agonist, MK801 was the reference antagonist and pregnenolone sulfate or GNE 9278 were used as reference PAMs.”

mGluR1 = molecular target: T5, mGluR1 (Rattus norvegicus, UniProt P23385); assay: mGluR1 radioligand binding assay; conditions: triplicate
T5 construct: purchased SB Drug Discovery (CNS discovery panel, FLIPR); Eurofins Discovery (Cerep)
Method: as §1, §3, §4

[2] = molecular target: human glutamine synthetase (Homo sapiens, UniProt P15104); assay: Catalysis of 2MeGlu C5-amidation by human glutamine synthetase; type: biochemical; conditions: 10 mM substrate, 5 ng/mL enzyme, ATP, NH4Cl
Method: The procedure was adapted from an existing protocol. To a reaction mixture in a 1.5 mL microcentrifuge tube containing 10 mM substrate, 10 mM ATP, 20 mM MgCl2, 40 mM NH4Cl, 25 mM 2-mercaptoethanol in 100 mM imidazole–HCl buffer pH 7.0, recombinant human glutamine synthetase (final concentration: 5 ng/mL) was added. The tubes were incubated in a preheated thermomixer at 37 °C and shaken at 600 rpm (30 s on, 30 s off). 5 μL aliquots were collected in triplicate every 5 min and immediately diluted with 195 μL of cold 60% ACN containing 10 μM Glu-d5 and Gln-d5 as internal standards in a 96 well plate. After collecting all samples, 200 μL of ACN was added to all wells and the plate was shaken at 1000 rpm for 5 min at room temperature, and then stored at − 80 °C until analysis.

mGluR2 = molecular target: T6, mGluR2 (Homo sapiens, UniProt Q14416); assay: mGluR2 radioligand binding assay; conditions: triplicate
T6 construct: purchased SB Drug Discovery (CNS discovery panel, FLIPR); Eurofins Discovery (Cerep)
Method: as §1, §3, §4

GABAB (B1/B2) [3] = molecular target: T1, GABAB (B1/B2); assay: Functional GABAB assay, Ca2+-dependent fluorimetry in RBL cells; type: cell-based; conditions: 100 μM, triplicate
GABAA α4β3γ2 = molecular target: T7, GABAA α4β3γ2 (Homo sapiens, UniProt P28472+P48169); assay: FLIPR functional receptor assay, GABAA α4β3γ2; type: cell-based; conditions: agonist mode; top test concentration 1 mM
T7 construct: host or cells: HEK 293
Method: as §7, §5
as §6, with “(PAM).” for “(PAM). For NMDA assays, a mixture of glutamate, glycine and CaCl2 was used as the agonist, MK801 was the reference antagonist and pregnenolone sulfate or GNE 9278 were used as reference PAMs.”

GABAA α4β1γ2 = molecular target: T8, GABAA α4β1γ2 (Homo sapiens, UniProt P18505+P48169); assay: FLIPR functional receptor assay, GABAA α4β1γ2; type: cell-based; conditions: agonist mode; top test concentration 1 mM
T8 construct: host or cells: HEK 293
Method: as §5, §6

[4] = test system: mouse cerebral synaptosomes; assay: Potassium-induced neurotransmitter release assay; type: cell-based; conditions: preincubated with 100 μM substrate 15 min 37 °C; high-potassium KRP buffer
Method: To each tube, 2.5 μL of a test compound solution (final concentration 100 μM) in Buffer KRP or Buffer KRP alone were added. Samples were incubated for 15 min at 37 °C, briefly chilled on ice, and then immediately centrifuged and washed twice with Buffer KRP. The resulting pellets were then resuspended in either Buffer KRP (500 μL) or Buffer K-KRP (500 μL). Samples were immediately centrifuged or incubated for 5, 10 or 15 min at 37 °C, then centrifuged and washed with Buffer KRP. Resulting pellets were resuspended in 400 μL of 60% ACN containing 2.5 μM Glu-d5 and 2.5 μM Gln-d5 as internal standards.

[5] = read-out: % of radioligand binding inhibition, mGluR5 (first line of Table S4)
[6] = read-out: % of radioligand binding inhibition, mGluR5 (second line of Table S4)

T1 sequence (Q9UBS5 20-961): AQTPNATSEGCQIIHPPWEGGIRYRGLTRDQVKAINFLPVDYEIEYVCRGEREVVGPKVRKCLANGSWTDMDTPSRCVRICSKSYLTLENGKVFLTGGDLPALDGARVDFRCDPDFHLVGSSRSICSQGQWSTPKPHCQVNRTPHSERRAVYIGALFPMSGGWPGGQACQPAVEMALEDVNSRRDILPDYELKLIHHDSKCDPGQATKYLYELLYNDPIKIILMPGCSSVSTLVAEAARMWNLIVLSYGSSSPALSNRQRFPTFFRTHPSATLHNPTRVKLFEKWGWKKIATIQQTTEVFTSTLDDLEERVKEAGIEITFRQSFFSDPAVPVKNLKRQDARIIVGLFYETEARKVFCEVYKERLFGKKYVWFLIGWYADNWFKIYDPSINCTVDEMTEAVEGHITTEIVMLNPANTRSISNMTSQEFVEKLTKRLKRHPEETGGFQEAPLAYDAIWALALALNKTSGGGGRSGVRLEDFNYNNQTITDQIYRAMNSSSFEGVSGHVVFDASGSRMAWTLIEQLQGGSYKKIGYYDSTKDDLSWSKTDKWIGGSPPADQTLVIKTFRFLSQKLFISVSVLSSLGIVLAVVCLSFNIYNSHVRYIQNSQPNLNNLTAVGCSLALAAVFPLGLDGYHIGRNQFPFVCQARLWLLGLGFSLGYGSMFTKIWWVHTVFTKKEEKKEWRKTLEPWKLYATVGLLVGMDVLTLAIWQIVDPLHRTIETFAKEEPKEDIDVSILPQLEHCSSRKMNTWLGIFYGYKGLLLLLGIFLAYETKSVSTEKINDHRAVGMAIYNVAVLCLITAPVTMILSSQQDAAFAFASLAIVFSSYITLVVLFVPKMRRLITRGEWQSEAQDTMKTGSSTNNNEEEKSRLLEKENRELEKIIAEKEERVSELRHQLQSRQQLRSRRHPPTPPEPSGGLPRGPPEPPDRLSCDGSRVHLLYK
T1 sequence (O75899 42-941 partner): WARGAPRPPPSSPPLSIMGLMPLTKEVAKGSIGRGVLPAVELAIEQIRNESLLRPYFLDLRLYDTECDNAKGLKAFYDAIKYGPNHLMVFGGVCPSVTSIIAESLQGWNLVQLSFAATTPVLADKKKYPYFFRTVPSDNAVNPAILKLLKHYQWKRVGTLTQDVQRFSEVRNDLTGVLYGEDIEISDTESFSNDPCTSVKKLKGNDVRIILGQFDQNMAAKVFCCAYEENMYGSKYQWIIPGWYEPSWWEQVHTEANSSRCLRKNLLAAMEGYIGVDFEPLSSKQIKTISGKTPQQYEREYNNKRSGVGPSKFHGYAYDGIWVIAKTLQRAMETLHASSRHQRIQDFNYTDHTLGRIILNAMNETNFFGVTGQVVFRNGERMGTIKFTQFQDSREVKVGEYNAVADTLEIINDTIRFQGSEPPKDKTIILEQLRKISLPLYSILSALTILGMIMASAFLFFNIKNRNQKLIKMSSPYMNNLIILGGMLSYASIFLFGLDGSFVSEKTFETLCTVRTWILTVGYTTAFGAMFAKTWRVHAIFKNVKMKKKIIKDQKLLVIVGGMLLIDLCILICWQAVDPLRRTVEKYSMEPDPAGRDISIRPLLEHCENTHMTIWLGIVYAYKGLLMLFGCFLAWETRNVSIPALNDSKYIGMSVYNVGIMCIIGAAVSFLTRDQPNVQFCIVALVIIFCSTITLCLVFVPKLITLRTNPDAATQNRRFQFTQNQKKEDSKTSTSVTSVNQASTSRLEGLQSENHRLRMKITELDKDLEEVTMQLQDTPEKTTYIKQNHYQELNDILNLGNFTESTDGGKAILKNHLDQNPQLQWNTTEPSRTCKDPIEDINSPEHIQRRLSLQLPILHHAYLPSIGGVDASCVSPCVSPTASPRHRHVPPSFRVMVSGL
T2 sequence (P41594 21-1212): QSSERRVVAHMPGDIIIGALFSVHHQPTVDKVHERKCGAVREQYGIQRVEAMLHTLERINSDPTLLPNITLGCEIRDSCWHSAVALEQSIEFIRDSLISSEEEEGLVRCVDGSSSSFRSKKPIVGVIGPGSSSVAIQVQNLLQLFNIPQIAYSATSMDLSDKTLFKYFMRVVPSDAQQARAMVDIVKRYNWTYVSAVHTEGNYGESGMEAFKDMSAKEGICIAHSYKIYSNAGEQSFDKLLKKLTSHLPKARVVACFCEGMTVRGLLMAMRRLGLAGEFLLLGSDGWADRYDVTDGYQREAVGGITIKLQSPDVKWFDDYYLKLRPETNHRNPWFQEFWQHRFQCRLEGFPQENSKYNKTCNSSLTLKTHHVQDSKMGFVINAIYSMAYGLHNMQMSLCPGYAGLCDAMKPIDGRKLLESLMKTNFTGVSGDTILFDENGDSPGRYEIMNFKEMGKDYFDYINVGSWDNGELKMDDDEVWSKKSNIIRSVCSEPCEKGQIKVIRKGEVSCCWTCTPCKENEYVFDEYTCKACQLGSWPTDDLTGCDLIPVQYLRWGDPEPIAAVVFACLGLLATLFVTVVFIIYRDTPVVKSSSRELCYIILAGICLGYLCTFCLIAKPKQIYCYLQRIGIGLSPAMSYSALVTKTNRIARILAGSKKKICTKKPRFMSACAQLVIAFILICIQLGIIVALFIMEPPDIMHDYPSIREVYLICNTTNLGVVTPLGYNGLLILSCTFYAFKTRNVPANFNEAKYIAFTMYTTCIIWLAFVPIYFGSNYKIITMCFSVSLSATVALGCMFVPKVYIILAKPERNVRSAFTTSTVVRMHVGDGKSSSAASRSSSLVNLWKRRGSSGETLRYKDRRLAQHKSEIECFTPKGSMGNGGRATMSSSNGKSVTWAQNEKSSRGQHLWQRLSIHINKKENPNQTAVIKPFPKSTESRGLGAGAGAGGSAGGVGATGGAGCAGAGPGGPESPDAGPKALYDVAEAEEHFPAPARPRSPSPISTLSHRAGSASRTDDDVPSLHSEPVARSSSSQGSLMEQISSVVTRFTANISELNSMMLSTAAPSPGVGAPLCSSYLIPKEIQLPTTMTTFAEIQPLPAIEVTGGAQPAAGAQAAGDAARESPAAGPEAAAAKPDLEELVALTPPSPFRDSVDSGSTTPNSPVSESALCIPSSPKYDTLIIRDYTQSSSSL
T5 sequence (P23385 19-1199): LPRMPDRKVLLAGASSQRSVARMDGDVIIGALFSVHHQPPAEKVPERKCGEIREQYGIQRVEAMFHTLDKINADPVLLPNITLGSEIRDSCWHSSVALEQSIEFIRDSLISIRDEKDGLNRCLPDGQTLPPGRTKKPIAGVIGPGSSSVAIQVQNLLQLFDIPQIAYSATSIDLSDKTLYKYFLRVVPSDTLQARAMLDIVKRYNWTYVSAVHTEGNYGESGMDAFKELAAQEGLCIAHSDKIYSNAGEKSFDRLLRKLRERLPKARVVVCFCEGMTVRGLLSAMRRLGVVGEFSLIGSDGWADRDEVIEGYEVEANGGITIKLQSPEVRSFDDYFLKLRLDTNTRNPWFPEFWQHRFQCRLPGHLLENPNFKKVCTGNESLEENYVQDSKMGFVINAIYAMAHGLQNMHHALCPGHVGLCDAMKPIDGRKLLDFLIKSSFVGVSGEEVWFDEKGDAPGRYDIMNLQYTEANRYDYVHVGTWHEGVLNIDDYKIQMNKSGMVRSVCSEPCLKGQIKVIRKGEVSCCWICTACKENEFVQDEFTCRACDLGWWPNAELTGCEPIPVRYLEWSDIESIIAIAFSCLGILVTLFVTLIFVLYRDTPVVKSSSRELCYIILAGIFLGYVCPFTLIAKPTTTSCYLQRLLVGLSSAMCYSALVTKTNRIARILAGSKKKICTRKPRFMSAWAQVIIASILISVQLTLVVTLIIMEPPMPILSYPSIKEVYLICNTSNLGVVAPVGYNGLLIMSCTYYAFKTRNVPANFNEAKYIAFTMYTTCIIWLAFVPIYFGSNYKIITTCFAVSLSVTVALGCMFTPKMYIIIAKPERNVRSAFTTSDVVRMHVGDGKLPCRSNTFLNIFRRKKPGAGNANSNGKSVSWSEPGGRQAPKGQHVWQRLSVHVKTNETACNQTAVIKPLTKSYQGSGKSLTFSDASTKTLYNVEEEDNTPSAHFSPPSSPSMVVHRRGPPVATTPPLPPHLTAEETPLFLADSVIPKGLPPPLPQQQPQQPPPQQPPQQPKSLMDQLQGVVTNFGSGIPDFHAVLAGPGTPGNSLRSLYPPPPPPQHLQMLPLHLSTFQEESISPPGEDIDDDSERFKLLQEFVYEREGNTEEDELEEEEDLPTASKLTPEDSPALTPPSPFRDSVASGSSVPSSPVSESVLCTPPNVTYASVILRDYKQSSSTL
Chain of human glutamine synthetase (P15104 whole entry): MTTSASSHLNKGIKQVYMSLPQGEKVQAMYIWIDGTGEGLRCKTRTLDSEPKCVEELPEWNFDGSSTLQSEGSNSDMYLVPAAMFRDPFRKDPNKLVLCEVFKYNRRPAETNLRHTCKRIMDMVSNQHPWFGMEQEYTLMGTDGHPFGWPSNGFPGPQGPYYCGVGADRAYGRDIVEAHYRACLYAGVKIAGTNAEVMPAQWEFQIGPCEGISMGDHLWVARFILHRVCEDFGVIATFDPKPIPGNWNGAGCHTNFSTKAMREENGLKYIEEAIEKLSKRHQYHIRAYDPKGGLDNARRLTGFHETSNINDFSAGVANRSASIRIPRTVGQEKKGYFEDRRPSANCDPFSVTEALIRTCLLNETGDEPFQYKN

Row | Compound | inhibition at 100 µM (GABAB (B1/B2) [1]) | inhibition at 100 µM (mGluR5; [5]) | inhibition at 100 µM (mGluR5; [6]) | EC50 (GABAA α2β2γ2) | EC50 (GABAA α4β2γ2) | inhibition at 100 µM (mGluR1) | Substrate for glutamine synthetase (GS) [2] | inhibition at 100 µM (mGluR2) | % of agonist response, GABAB (B1/B2) (GABAB (B1/B2) [3]) | EC50 (GABAA α4β3γ2) | EC50 (GABAA α4β1γ2) | Potassium-induced release from preloaded synaptosomes [4]
1 | C[C@@](N)(CCC(=O)O)C(=O)O [(R)-2MeGlu, (R)-2-methylglutamic acid] | 5% | -20% | -2% | 660 µM | > 1 mM | -3% | not a substrate for GS | -3% | 0% | > 1 mM | 870 µM | not significantly altered by depolarization
2 | C[C@](N)(CCC(=O)O)C(=O)O [(S)-2MeGlu, (S)-2-methylglutamic acid] | 5% | 11% | -4% | 530 µM | > 1 mM | 6% | is a substrate for GS | 25% | 0% | > 1 mM | 704 µM | released upon depolarization in a manner very similar to endogenous Glu
